From patent US9873709B2 (priority 2013, dated 2018)
Structures can show the parent of a compound that is named as a salt.

Target: isolated recombinant JAK2 kinase domain (Homo sapiens (Human), UniProt O60674)
Test: not given
Details: read-out: JAK2 Ki; isolated recombinant JAK2 kinase domain, 25 μM ATP

Sequence of isolated recombinant JAK2 kinase domain (O60674 849-1124): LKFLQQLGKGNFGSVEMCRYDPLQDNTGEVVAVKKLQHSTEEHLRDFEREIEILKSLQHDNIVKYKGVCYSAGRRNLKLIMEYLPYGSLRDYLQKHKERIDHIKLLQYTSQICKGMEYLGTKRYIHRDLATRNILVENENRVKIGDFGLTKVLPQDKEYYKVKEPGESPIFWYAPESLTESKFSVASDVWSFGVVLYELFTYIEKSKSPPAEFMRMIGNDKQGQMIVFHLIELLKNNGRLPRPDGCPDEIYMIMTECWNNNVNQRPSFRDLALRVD

Row | Ki [nM] | SMILES
1 | 0.85 | CN1CCC(N(C)C(=O)c2ccc(Nc3nc4c(N5CCC(C)(c6ccccc6)CC5)cccn4n3)cc2)CC1 [Example 1-1, N-methyl-4-(8-(4-methyl-4-phenylpiperidin-1-yl)-[1,2,4]triazolo[1,5-a]pyridin-2-ylamino)-N-(1-methylpiperidin-4-yl)benzamide]
2 | 14.2 | CN1CCC(N(C)C(=O)c2ccc(Nc3nc4c(N5CCC(O)(C6CCCCC6)CC5)cccn4n3)cc2)CC1 [Example 1-2, 4-[[8-(4-cyclohexyl-4-hydroxy-1-piperidyl)-[1,2,4]triazolo[1,5-a]pyridin-2-yl]amino]-N-methyl-N-(1-methyl-4-piperidyl)benzamide]
3 | 92.4 | CN1CCC(N(C)C(=O)c2ccc(Nc3nc4c(N5CCC(O)CC5)cccn4n3)cc2)CC1 [Example 1-3, 4-[[8-(4-hydroxy-1-piperidyl)-[1,2,4]triazolo[1,5-a]pyridin-2-yl]amino]-N-methyl-N-(1-methyl-4-piperidyl)benzamide; hydrochloride]
4 | 12.4 | CN1CCC(N(C)C(=O)c2ccc(Nc3nc4c(N5CC=C(c6ccccc6)CC5)cccn4n3)cc2)CC1 [Example 1-4, N-methyl-N-(1-methyl-4-piperidyl)-4-[[8-(4-phenyl-3,6-dihydro-2H-pyridin-1-yl)-[1,2,4]triazolo[1,5-a]pyridin-2-yl]amino]benzamide]
5 | 39.9 | CN1CCC(N(C)C(=O)c2ccc(Nc3nc4c(N5CCC(C)(O)CC5)cccn4n3)cc2)CC1 [Example 1-6, 4-[[8-(4-hydroxy-4-methyl-1-piperidyl)-[1,2,4]triazolo[1,5-a]pyridin-2-yl]amino]-N-methyl-N-(1-methyl-4-piperidyl)benzamide; hydrochloride]
6 | 6.51 | CN1CCC(N(C)C(=O)c2ccc(Nc3nc4c(N5CCCC(O)(c6ccccc6)CC5)cccn4n3)cc2)CC1 (stereo not drawn) [Example 1-7, 4-[[8-(4-hydroxy-4-phenyl-azepan-1-yl)-[1,2,4]triazolo[1,5-a]pyridin-2-yl]amino]-N-methyl-N-(1-methyl-4-piperidyl)benzamide]
7 | 7.53 | CN1CCC(N(C)C(=O)c2ccc(Nc3nc4c(N5CCC=C(c6ccccc6)CC5)cccn4n3)cc2)CC1 [Example 1-14, N-methyl-N-(1-methyl-4-piperidyl)-4-[[8-(4-phenyl-2,3,6,7-tetrahydroazepin-1-yl)-[1,2,4]triazolo[1,5-a]pyridin-2-yl]amino]benzamide]
8 | 12.2 | CN1CCC(N(C)C(=O)c2ccc(Nc3nc4c(N5CC=C(c6ccccc6)CCC5)cccn4n3)cc2)CC1 [Example 1-15, N-methyl-N-(1-methyl-4-piperidyl)-4-[[8-(5-phenyl-2,3,4,7-tetrahydroazepin-1-yl)-[1,2,4]triazolo[1,5-a]pyridin-2-yl]amino]benzamide]
9 | 25.5 | CN1CCC(N(C)C(=O)c2ccc(Nc3nc4c(N5CCC(F)(c6ccccc6)CC5)cccn4n3)cc2)CC1 [Example 1-16, 4-[[8-(4-fluoro-4-phenyl-1-piperidyl)-[1,2,4]triazolo[1,5-a]pyridin-2-yl]amino]-N-methyl-N-(1-methyl-4-piperidyl)benzamide]
10 | 17.3 | CN1CCC(N(C)C(=O)c2ccc(Nc3nc4c(N5CCC(O)(c6cccc(Cl)c6)CC5)cccn4n3)cc2)CC1 [Example 1-18, 4-[[8-[4-(3-chlorophenyl)-4-hydroxy-1-piperidyl]-[1,2,4]triazolo[1,5-a]pyridin-2-yl]amino]-N-methyl-N-(1-methyl-4-piperidyl)benzamide]
11 | 36.8 | CN1CCC(N(C)C(=O)c2ccc(Nc3nc4c(N5CCC(O)(c6ccncc6)CC5)cccn4n3)cc2)CC1 [Example 1-20, 4-[[8-[4-hydroxy-4-(4-pyridyl)-1-piperidyl]-[1,2,4]triazolo[1,5-a]pyridin-2-yl]amino]-N-methyl-N-(1-methyl-4-piperidyl)benzamide]
12 | 32.1 | CN1CCC(N(C)C(=O)c2ccc(Nc3nc4c(N5CCC(O)(c6cccc(C#N)c6)CC5)cccn4n3)cc2)CC1 [Example 1-22, 4-[[8-[4-(3-cyanophenyl)-4-hydroxy-1-piperidyl]-[1,2,4]triazolo[1,5-a]pyridin-2-yl]amino]-N-methyl-N-(1-methyl-4-piperidyl)benzamide]
13 | 19.1 | CN1CCC(N(C)C(=O)c2ccc(Nc3nc4c(N5CCC6(CNC(=O)O6)C5)cccn4n3)cc2)CC1 (stereo not drawn) [Example 1-24, N-methyl-N-(1-methyl-4-piperidyl)-4-[[8-(2-oxo-1-oxa-3,7-diazaspiro[4.4]nonan-7-yl)-[1,2,4]triazolo[1,5-a]pyridin-2-yl]amino]benzamide]
14 | 49.1 | CN1CCC(N(C)C(=O)c2ccc(Nc3nc4c(N5CCN6CCOC[C@@H]6C5)cccn4n3)cc2)CC1 [Example 1-25, 4-[[8-[(9aS)-3,4,6,7,9,9a-hexahydro-1H-pyrazino[2,1-c][1,4]oxazin-8-yl]-[1,2,4]triazolo[1,5-a]pyridin-2-yl]amino]-N-methyl-N-(1-methyl-4-piperidyl)benzamide]
15 | 17.2 | CN1CCC(N(C)C(=O)c2ccc(Nc3nc4c(N5CCC6(CC5)CNC(=O)C6)cccn4n3)cc2)CC1 [Example 1-27, N-methyl-N-(1-methyl-4-piperidyl)-4-[[8-(3-oxo-2,8-diazaspiro[4.5]decan-8-yl)-[1,2,4]triazolo[1,5-a]pyridin-2-yl]amino]benzamide]
16 | 8.21 | CN1CCC(N(C)C(=O)c2ccc(Nc3nc4c(N5CCC6(CC5)CNC(=O)O6)cccn4n3)cc2)CC1 [Example 1-28, N-methyl-N-(1-methyl-4-piperidyl)-4-[[8-(2-oxo-1-oxa-3,8-diazaspiro[4.5]decan-8-yl)-[1,2,4]triazolo[1,5-a]pyridin-2-yl]amino]benzamide]
17 | 52.4 | CN1CCC(N(C)C(=O)c2ccc(Nc3nc4c(N5CCN6C(=O)NCCC6C5)cccn4n3)cc2)CC1 (stereo not drawn) [Example 1-31, N-methyl-N-(1-methyl-4-piperidyl)-4-[[8-(6-oxo-3,4,7,8,9,9a-hexahydro-1H-pyrazino[1,2-c]pyrimidin-2-yl)-[1,2,4]triazolo[1,5-a]pyridin-2-yl]amino]benzamide]
18 | 28.8 | CN1CCC(N(C)C(=O)c2ccc(Nc3nc4c(N5CCN6C(=O)COC[C@@H]6C5)cccn4n3)cc2)CC1 [Example 1-32, 4-[[8-[(9aS)-4-oxo-6,7,9,9a-tetrahydro-1H-pyrazino[2,1-c][1,4]oxazin-8-yl]-[1,2,4]triazolo[1,5-a]pyridin-2-yl]amino]-N-methyl-N-(1-methyl-4-piperidyl)benzamide]
19 | 38.7 | CN1CCC(N(C)C(=O)c2ccc(Nc3nc4c(N5CCN6C(=O)COC[C@H]6C5)cccn4n3)cc2)CC1 [Example 1-33, 4-[[8-[(9aR)-4-oxo-6,7,9,9a-tetrahydro-1H-pyrazino[2,1-c][1,4]oxazin-8-yl]-[1,2,4]triazolo[1,5-a]pyridin-2-yl]amino]-N-methyl-N-(1-methyl-4-piperidyl)benzamide]

Tested on: JAK1-dependent STAT6 phosphorylation downstream of IL-13 stimulation in TF-1 human erythroleukemia cells
Test: cells
Details: TF-1, read-out: IL-13-pSTAT6 IC50

Row | IC50 [nM] | SMILES
20 | 48.1 | CN(C(=O)c1ccc(Nc2nc3c(C4=CCN(C(=O)CCC(F)(F)F)CC4)cccn3n2)cc1)C1CCN(Cc2ccccc2)C1 (stereo not drawn) [Example 2-473, N-(1-benzylpyrrolidin-3-yl)-N-methyl-4-[[8-[1-(4,4,4-trifluorobutanoyl)-3,6-dihydro-2H-pyridin-4-yl]-[1,2,4]triazolo[1,5-a]pyridin-2-yl]amino]benzamide]
21 | 14.1 | O=C(CCC(F)(F)F)N1CC=C(c2cccn3nc(Nc4ccc(C(=O)N5CCN(CCN6CCOCC6)CC5)cc4)nc23)CC1 [Example 2-474, 4,4,4-trifluoro-1-[4-[2-[4-[4-(2-morpholinoethyl)piperazine-1-carbonyl]anilino]-[1,2,4]triazolo[1,5-a]pyridin-8-yl]-3,6-dihydro-2H-pyridin-1-yl]butan-1-one]
22 | 42.9 | CN1CCN(C(=O)C2CCN(C(=O)c3ccc(Nc4nc5c(C6=CCN(C(=O)CCC(F)(F)F)CC6)cccn5n4)cc3)CC2)CC1 [Example 2-475, 4,4,4-trifluoro-1-[4-[2-[4-[4-(4-methylpiperazine-1-carbonyl)piperidine-1-carbonyl]anilino]-[1,2,4]triazolo[1,5-a]pyridin-8-yl]-3,6-dihydro-2H-pyridin-1-yl]butan-1-one]
23 | 10.5 | Cc1cccnc1CN(C)C(=O)c1ccc(Nc2nc3c(C4=CCN(C(=O)CCC(F)(F)F)CC4)cccn3n2)cc1 [Example 2-476, N-methyl-N-[(3-methyl-2-pyridyl)methyl]-4-[[8-[1-(4,4,4-trifluorobutanoyl)-3,6-dihydro-2H-pyridin-4-yl]-[1,2,4]triazolo[1,5-a]pyridin-2-yl]amino]benzamide]
24 | 113 | CN(Cc1ccc2c(c1)CCCN2C)C(=O)c1ccc(Nc2nc3c(C4=CCN(C(=O)CCC(F)(F)F)CC4)cccn3n2)cc1 [Example 2-477, N-methyl-N-[(1-methyl-3,4-dihydro-2H-quinolin-6-yl)methyl]-4-[[8-[1-(4,4,4-trifluorobutanoyl)-3,6-dihydro-2H-pyridin-4-yl]-[1,2,4]triazolo[1,5-a]pyridin-2-yl]amino]benzamide]
25 | 4.8 | O=C(NCCc1ccccn1)c1ccc(Nc2nc3c(C4=CCN(C(=O)CCC(F)(F)F)CC4)cccn3n2)cc1 [Example 2-478, N-[2-(2-pyridyl)ethyl]-4-[[8-[1-(4,4,4-trifluorobutanoyl)-3,6-dihydro-2H-pyridin-4-yl]-[1,2,4]triazolo[1,5-a]pyridin-2-yl]amino]benzamide]
26 | 178 | CN1CCC(N(C)C(=O)c2ccc(Nc3nc4c(C5=CCN(C(=O)N6CC(C)(C)C6)CCC5)cccn4n3)cc2)CC1 [Example 2-480, 4-[[8-[1-(3,3-dimethylazetidine-1-carbonyl)-2,3,4,7-tetrahydroazepin-5-yl]-[1,2,4]triazolo[1,5-a]pyridin-2-yl]amino]-N-methyl-N-(1-methyl-4-piperidyl)benzamide]

Row | SMILES | IC50 [nM]
27 | CN1CCC(N(C)C(=O)c2ccc(Nc3nc4c(C5=CCN(S(=O)(=O)N6CC(C)(C)C6)CC5)cccn4n3)cc2)CC1 [Example 2-479, 4-[[8-[1-(3,3-dimethylazetidin-1-yl)sulfonyl-3,6-dihydro-2H-pyridin-4-yl]-[1,2,4]triazolo[1,5-a]pyridin-2-yl]amino]-N-methyl-N-(1-methyl-4-piperidyl)benzamide] | 239
